Assay results from a melting point compilation (Tetko et al.).

Row | SMILES | melting point [°C]
1 | CNS(=O)(=O)c1ccc(Cl)c(C(=O)O)c1 | 171 to 173
2 | Nc1ccc(S(=O)(=O)CCO)cc1 | 106 to 108
3 | Cc1ccc(-n2cccc2)cc1 | 82 to 84
4 | Cc1nn(-c2ccc(F)cc2F)c(C)c1CC(=O)O | 163 to 165
5 | CSc1nccn1-c1ccc(C(=O)O)cc1 | 296 to 298
6 | CS(=O)(=O)CCOc1cccc(N)c1 | 79 to 81
7 | CCCCc1ccc(Nc2nnc(S)s2)cc1 | 124 to 126
8 | O=[N+]([O-])c1cccc2c1NCCC2 | 69 to 71
9 | CC(=O)N1CCC(N)CC1 | 19 to 21
10 | COc1cc(C(C)N)ccc1OCCO (stereo not drawn) | 103 to 105
11 | NNC(=S)N1CCOCC1 | 181 to 183
12 | CCOc1cc(C#N)cc(Cl)c1O | 126 to 128
13 | O=C(O)c1cccc(OCc2ccccc2)c1 | 113 to 115
14 | CCC(NC(=O)OC(C)(C)C)c1ccccc1O (stereo not drawn) | 111 to 113
15 | O=C(O)C1CCCN1C(=O)NC1CCCCC1 (stereo not drawn) | 175 to 177
16 | O=S(=O)(Cl)c1cc(Br)c(F)cc1F | 34 to 36
17 | O=Cc1ccc(Sc2ncccn2)c([N+](=O)[O-])c1 | 100 to 102
18 | N#Cc1cccc(OCC(F)(F)F)n1 | 51 to 53
19 | O=C(O)C1COc2ccc(Cl)cc2C1 (stereo not drawn) | 85 to 87
20 | NC(=O)N1CCC(O)CC1 | 147 to 149

Row | SMILES | melting point [°C]
21 | Cc1nc(N2CCNCC2)sc1C | 72 to 74
22 | Cc1ccc(-c2nnc3n2CCCCC3)cc1N | 171 to 173
23 | CC(C)C(Br)C(N)=O (stereo not drawn) | 131 to 133
24 | Brc1ccc2c(c1)c1cc(Br)ccc1n2CC1CO1 (stereo not drawn) | 142 to 144
25 | O=C(O)CCC(Cc1ccc(Cl)cc1)C(=O)O (stereo not drawn) | 137 to 139
26 | O=C(O)CN1CC(=O)NC1=O | 139 to 141
27 | NNC(=O)Cc1cccc(F)c1 | 106 to 108
28 | O=S(=O)(Cc1nc2ccccc2[nH]1)c1ccccc1 | 215 to 217
29 | NNc1ccc(C(F)(F)F)cn1 | 61 to 63
30 | O=C(O)c1ccccc1CO | 119 to 121
31 | NC(=O)Nc1ccc(F)c(Cl)c1 | 166 to 168
32 | O=Cc1ccccc1S(=O)(=O)N1CCOCC1 | 97 to 99
33 | NC(=S)c1ccc(Cl)c(Cl)c1 | 136 to 138
34 | Cc1cccc(S(=O)(=O)Cl)c1Br | 56 to 58
35 | N#CCc1c[nH]c2cc(Br)ccc12 | 112 to 114
36 | Cn1nnnc1Sc1ccc(Br)cc1N | 148 to 150
37 | CC(C)C(=O)Nc1ccc(Cl)c(C(=O)O)c1 | 229 to 231
38 | O=C(CCl)Nc1ccccc1C(=O)Nc1ccc2c(c1)OCO2 | 169 to 171
39 | CC1(C)CC(=O)NC1=O | 103 to 105
40 | COc1ccc(-c2nc(N)sc2C)cc1OC | 185 to 187

Row | SMILES | melting point [°C]
41 | O=Cc1c[nH]c2ncccc12 | 211 to 213
42 | CC(C)(C)OC(=O)Nc1ccc(Cc2nc(C(=O)O)cs2)cc1 | 164 to 166
43 | Nc1ccc(CC2NC(=O)NC2=O)cc1 (stereo not drawn) | 152 to 154
44 | CC1Oc2ccc(C(=O)CBr)cc2NC1=O (stereo not drawn) | 147 to 149
45 | COC(=O)c1sc(-c2ccccc2Cl)cc1N | 109 to 111
46 | Nc1cc(F)cc(N2CCOCC2)c1 | 91 to 93
47 | Cc1ccc(S(N)(=O)=O)c(C(=O)O)c1 | 271 to 273
48 | CC(Cl)C(=O)c1c(N)n(C)c(=O)n(C)c1=O (stereo not drawn) | 140 to 142
49 | Cc1cc([N+](=O)[O-])cc(C)c1S(=O)(=O)Cl | 84 to 86
50 | O=C(O)Cc1csc(-c2ccco2)n1 | 136 to 138
51 | Nc1nc(-c2c(F)cccc2F)cs1 | 179 to 181
52 | COc1ccc(C=O)cc1C#N | 119 to 121
53 | Cc1ccc(F)c(NC(=S)NN)c1 | 133 to 135
54 | O=C(O)C1CC(=O)N(c2nccs2)C1 (stereo not drawn) | 184 to 186
55 | O=C(O)COc1ccc(C(F)(F)F)cc1 | 184 to 186
56 | CC(C)C1(C)CC(=O)NC1=O (stereo not drawn) | 78 to 80
57 | CS(=O)(=O)CCS(=O)(=O)c1ccc(N)cc1 | 209 to 211
58 | Cc1ccc(C23CC4CC(CC(C(=O)O)(C4)C2)C3)cc1 | 174 to 176
